Data on seven molecules can be found in US20260308109A1 (priority 2022, published 2026).

Where two headings read alike, the source gives them in different places.

One experiment concerns 5-HT2A receptor. The settings on record: Flanagan et al. 2020; cited from earlier work.
Experiment [1] concerns the target T1, 5-HT2B (Homo sapiens, UniProt P41595). The experiment is described as follows: cell-based. The format is cell-based. Details: expressed in transfected cells; host or cells: HEK293; Emax: dose or concentration left out as unconfirmed.
The target in experiment [2] is T1, 5-HT2B. The experiment is described as follows: In vitro receptor binding ([3H]-LSD), 5-HT2B. Also noted: expressed in transfected cells; host or cells: HEK293 (membranes). Particulars: for Binding ([3H]-LSD) % Inh: 5-HT2B, HEK293 membrane, radioligand 3H-LSD; for affinity at 5-HT2B: in words.
Experiment [3] has as its target T2, 5-HT2A (Homo sapiens, UniProt P28223). The experiment is described as follows: cell-based. It counts as cell-based. Also noted: expressed in transfected cells; host or cells: HEK293; Emax: dose or concentration left out as unconfirmed.
The target in experiment [4] is T2, 5-HT2A. The experiment is described as follows: biochemical. Also noted: expressed in transfected cells; host or cells: HEK293 (membranes). The format is binding.
Experiment [5] addresses T3, 5-HT2C (Homo sapiens, UniProt P28335).
T3 sequence (P28335 33-458): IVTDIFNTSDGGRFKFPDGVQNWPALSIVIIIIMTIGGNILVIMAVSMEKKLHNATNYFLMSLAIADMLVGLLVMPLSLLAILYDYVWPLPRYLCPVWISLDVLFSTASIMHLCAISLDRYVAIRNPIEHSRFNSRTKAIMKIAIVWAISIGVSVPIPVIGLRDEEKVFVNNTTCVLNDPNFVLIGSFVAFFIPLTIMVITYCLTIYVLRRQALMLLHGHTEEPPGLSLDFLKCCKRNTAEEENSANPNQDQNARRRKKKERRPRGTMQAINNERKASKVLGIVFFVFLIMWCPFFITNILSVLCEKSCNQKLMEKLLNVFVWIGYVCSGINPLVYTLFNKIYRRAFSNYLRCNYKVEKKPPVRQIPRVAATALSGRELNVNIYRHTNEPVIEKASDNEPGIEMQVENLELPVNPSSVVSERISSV
The experiment is described as follows: cell-based. Also noted: expressed in transfected cells; host or cells: HEK293; Emax: dose or concentration left out as unconfirmed.

Experiment [6] has as its target T3, 5-HT2C. The experiment is described as follows: In vitro receptor binding ([3H]-LSD), 5-HT2C. Also noted: expressed in transfected cells; host or cells: HEK293 (membranes). The settings on record: for Binding ([3H]-LSD) % Inh: 5-HT2C, HEK293 membrane, radioligand 3H-LSD; for affinity at 5-HT2C: in words; for affinity selectivity for 5-HT2C over 5-HT2A: ratio of Ki.

The test system of experiment [7] is TNF-α induced inflammation. The settings on record: Yu et al. 2008; cited from earlier work.

T1 sequence (P41595 whole entry): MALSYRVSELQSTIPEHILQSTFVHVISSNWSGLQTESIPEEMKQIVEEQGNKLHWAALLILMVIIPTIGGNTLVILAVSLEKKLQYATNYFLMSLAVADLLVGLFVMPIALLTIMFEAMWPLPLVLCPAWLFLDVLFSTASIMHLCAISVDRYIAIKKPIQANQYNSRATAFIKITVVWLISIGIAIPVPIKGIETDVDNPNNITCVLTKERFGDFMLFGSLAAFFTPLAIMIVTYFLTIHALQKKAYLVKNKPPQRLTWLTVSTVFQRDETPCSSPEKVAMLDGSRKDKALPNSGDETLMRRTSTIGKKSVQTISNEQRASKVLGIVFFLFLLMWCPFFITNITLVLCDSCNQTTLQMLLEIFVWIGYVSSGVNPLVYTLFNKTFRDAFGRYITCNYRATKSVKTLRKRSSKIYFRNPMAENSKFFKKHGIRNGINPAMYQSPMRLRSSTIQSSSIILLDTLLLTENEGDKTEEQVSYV
T2 sequence (P28223 whole entry): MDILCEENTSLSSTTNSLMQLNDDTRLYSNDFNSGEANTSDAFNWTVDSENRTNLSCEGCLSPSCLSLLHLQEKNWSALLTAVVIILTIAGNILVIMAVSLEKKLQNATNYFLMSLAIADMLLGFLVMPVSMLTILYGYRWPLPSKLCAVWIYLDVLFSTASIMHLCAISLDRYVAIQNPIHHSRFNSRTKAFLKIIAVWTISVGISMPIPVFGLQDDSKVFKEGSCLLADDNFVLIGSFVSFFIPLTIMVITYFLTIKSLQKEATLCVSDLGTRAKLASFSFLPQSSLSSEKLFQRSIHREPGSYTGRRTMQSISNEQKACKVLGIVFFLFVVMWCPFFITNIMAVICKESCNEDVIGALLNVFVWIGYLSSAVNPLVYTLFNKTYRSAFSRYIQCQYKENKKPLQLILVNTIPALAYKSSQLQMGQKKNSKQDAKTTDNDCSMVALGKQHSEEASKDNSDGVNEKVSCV

As to `COc1ccc(OC)c(CCN)c1` [Compound 2C-H, 2,5-dimethoxyphenethylamine], in the experiment with 5-HT2A receptor, the anti-inflammatory pharmacophore result is listed as “primary pharmacophore for anti-inflammatory phenethylamine 5-HT2A receptor agonists”.
As for `COc1cc(CC(C)C)c(OC)c2c1C(CN)C2` (stereo not drawn) [Compound 8, (3-isobutyl-2,5-dimethoxybicyclo[4.2.0]octa-1,3,5-trien-7-yl)methanamine], the Bottom on 5-HT2B [1] is given as −0.5387 % of control; at 5-HT2A [3], 2.988 % of control; on 5-HT2C [5], 2.175 % of control. Moreover, the HillSlope at 5-HT2B [1] is listed as 0.5893; on 5-HT2A [3], 1.426; at 5-HT2C [5] it was 1.285. The “functional activity at 5-HT2B” value at 5-HT2B [1] is recorded as “moderate functional activity”. Further, the concentration for a half-maximal effect (EC50) at 5-HT2B [1] (EC50) was found to be 261000 nM; on 5-HT2B [1] (IP-One EC50) it was 297 nM; on 5-HT2A [3] (EC50), 2.4 nM; at 5-HT2A [3] (IP-One EC50), 2 nM; at 5-HT2C [5] (EC50), 8.73 nM; on 5-HT2C [5] (IP-One EC50), 9 nM. The Emax on 5-HT2B [1] (HEK293, read-out: IP-One % MAX) was determined as 51%; on 5-HT2B [1] (read-out: Top), 51.2%; at 5-HT2A [3] (HEK293, read-out: IP-One % MAX), 113%; at 5-HT2A [3] (read-out: Top), 120%; at 5-HT2C [5] (HEK293, read-out: IP-One % MAX) it was 117%; at 5-HT2C [5] (read-out: Top), 120%. Also, the inhibitory constant (Ki) at 5-HT2B [2] is above 95 nM; on 5-HT2A [4], 133 nM; at 5-HT2C [6], 4 nM. The entries for the “Binding ([3H]-LSD) % Inh” value on 5-HT2B [2], on 5-HT2A [4] and on 5-HT2C [6] were 29%, 2A: 133 nM (65%) and 93%, respectively. For the same molecule, on 5-HT2A [3], the “functional selectivity for 5-HT2A over 5-HT2B” value is given as “approximately 148.5 fold”. On 5-HT2A [3], the “functional selectivity for 5-HT2A over 5-HT2C” value is on record as “approximately 4.5 fold”. Moreover, the “affinity at 5-HT2C” value on 5-HT2C [6] was “low nanomolar affinity”. The “affinity selectivity for 5-HT2C over 5-HT2A” value on 5-HT2C [6] is reported as “approximately 33 fold”.
`CCN(CC)C(=O)[C@@H]1C=C2c3cccc4[nH]cc(c34)C[C@H]2N(C)C1` [LSD, lysergic acid diethylamide]: the “effect on TNF-α induced inflammation” value in experiment [7] is “same effect, albeit slightly less potent”.
With `COc1cc(I)c(OC)c2c1C(CN)C2` (stereo not drawn) [Compound 2, (3-iodo-2,5-dimethoxybicyclo[4.2.0]octa-1,3,5-trien-7-yl)methanamine], the Bottom on 5-HT2B [1] is listed as 3.780 % of control; on 5-HT2A [3], 5.304 % of control; on 5-HT2C [5] it was 3.427 % of control. For the same molecule, the HillSlope at 5-HT2B [1] turned out to be 1.531; at 5-HT2A [3] it was 1.338; at 5-HT2C [5], 1.279. The “functional activity at 5-HT2B” value at 5-HT2B [1] is “minimal functional activity”. The EC50 on 5-HT2B [1] (EC50) was 89.1 nM; at 5-HT2B [1] (IP-One EC50), above 300 nM; on 5-HT2A [3] (EC50), 10.1 nM; at 5-HT2A [3] (IP-One EC50), 10 nM; on 5-HT2C [5] (EC50) it was 58 nM; at 5-HT2C [5] (IP-One EC50), 41 nM. In addition, the Emax at 5-HT2B [1] (HEK293, read-out: IP-One % MAX) was found to be 49%; at 5-HT2B [1] (read-out: Top), 56.2%; on 5-HT2A [3] (HEK293, read-out: IP-One % MAX), 127%; at 5-HT2A [3] (read-out: Top) it was 124%; on 5-HT2C [5] (HEK293, read-out: IP-One % MAX) it was 122%; at 5-HT2C [5] (read-out: Top), 136%. Also, the values for the Ki on 5-HT2B [2], at 5-HT2A [4] and on 5-HT2C [6] were 28 nM, 17 nM and 3 nM, respectively. In addition, the entries for the “Binding ([3H]-LSD) % Inh” value at 5-HT2B [2], on 5-HT2A [4] and on 5-HT2C [6] were 77%, 2A: 17 nM (96%) and 96%, respectively. For the same molecule, the “affinity at 5-HT2B” value on 5-HT2B [2] was “low nanomolar affinity”. In addition, at 5-HT2A [3], the “functional selectivity for 5-HT2A over 5-HT2C” value is “approximately 4 fold”. On 5-HT2A [4], the “affinity at 5-HT2A” value was “low nanomolar affinity”. Besides, at 5-HT2A [4], the “affinity selectivity for 5-HT2A over 5-HT2B” value is reported as “approximately 1.6 fold”. At 5-HT2C [6], the “affinity at 5-HT2C” value is reported as “low nanomolar affinity”. At 5-HT2C [6], the “affinity selectivity for 5-HT2C over 5-HT2A” value is given as “approximately 6 fold”.
As for `COc1cc(Br)c(OC)c2c1[C@H](CN)C2` [Compound 2C-BCB], the “effect on TNF-α induced inflammation” value in experiment [7] is “same effect, albeit slightly less potent”.
For the molecule `CCc1cc(OC)c2c(c1OC)CC2CN` (stereo not drawn) [Compound 4, (3-ethyl-2,5-dimethoxybicyclo[4.2.0]octa-1,3,5-trien-7-yl)methanamine], the values for the Bottom at 5-HT2B [1], at 5-HT2A [3] and at 5-HT2C [5] were −0.2984 % of control, −0.4425 % of control and 1.236 % of control, respectively. Also, the values for the HillSlope on 5-HT2B [1], at 5-HT2A [3] and at 5-HT2C [5] were 1.088, 1.033 and 1.410, respectively. Besides, at 5-HT2B [1], the “functional activity at 5-HT2B” value is reported as “significant functional activity”. In addition, the concentration giving a half-maximal response (EC50) at 5-HT2B [1] (EC50) was determined as 27.4 nM; on 5-HT2B [1] (IP-One EC50), 70 nM; at 5-HT2A [3] (EC50), 3.77 nM; at 5-HT2A [3] (IP-One EC50) it was 4 nM; on 5-HT2C [5] (EC50), 10.8 nM; on 5-HT2C [5] (IP-One EC50), 11 nM. Also, the Emax at 5-HT2B [1] (HEK293, read-out: IP-One % MAX) worked out at 70%; on 5-HT2B [1] (read-out: Top), 72.8%; at 5-HT2A [3] (HEK293, read-out: IP-One % MAX), 114%; at 5-HT2A [3] (read-out: Top), 108%; on 5-HT2C [5] (HEK293, read-out: IP-One % MAX) it was 104%; on 5-HT2C [5] (read-out: Top) it was 102%. Besides, the Ki was 43 nM on 5-HT2B [2], 26 nM at 5-HT2A [4] and 4 nM at 5-HT2C [6]. In addition, the “Binding ([3H]-LSD) % Inh” value at 5-HT2B [2] is 73%; on 5-HT2A [4] it was 2A: 26 nM (90%); at 5-HT2C [6], 89%. In addition, at 5-HT2B [2], the “affinity at 5-HT2B” value was “low nanomolar affinity”. The “functional selectivity for 5-HT2A over 5-HT2B” value on 5-HT2A [3] is reported as “approximately 17.5 fold”. The “functional selectivity for 5-HT2A over 5-HT2C” value at 5-HT2A [3] is “approximately 2.75 fold”. Besides, the “affinity at 5-HT2A” value at 5-HT2A [4] was “low nanomolar affinity”. Also, the “affinity selectivity for 5-HT2A over 5-HT2B” value at 5-HT2A [4] was “approximately 1.6 fold”. In addition, the “affinity at 5-HT2C” value on 5-HT2C [6] was “low nanomolar affinity”. In addition, the “affinity selectivity for 5-HT2C over 5-HT2A” value on 5-HT2C [6] is given as “approximately 6.5 fold”.
Take `CC1CC(C)N1C(=O)[C@@H]1C=C2c3cccc4[nH]cc(c34)C[C@H]2N(C)C1` (stereo partly drawn) [LA-SS-Az, lysergic acid 2,4-dimethylazetidide]: the “effect on TNF-α induced inflammation” value in experiment [7] is given as “same effect, albeit slightly less potent”.
